Experimental data from article PMC12414870, “First‐in‐class inhibitors of SbnA reduce siderophore production in Staphylococcus aureus” (The Febs Journal, 2025).

Assays:
SbnA [1] = molecular target: T1, SbnA (Staphylococcus aureus, UniProt A6QDA0); experiment: PNP-coupled continuous assay (MESG, […] nm); format: biochemical
T1 construct: synthetic codon-optimised gene in pSH21p::TrxA, His-Trx tag with TEV site, tag cleaved and removed; expressed in E. coli BL21 ArcticExpress (DE3)

SbnA [2] = molecular target: T1, SbnA; experiment: PNP-coupled continuous assay (MESG, […] nm), global fit; format: biochemical
SbnA [3] = molecular target: T1, SbnA; experiment: PNP-coupled continuous assay, global fit to ping-pong with substrate inhibition; format: biochemical; details: substrate inhibition (unproductive binding to internal aldimine); 0.035-0.720 mM L-OPS; 50 mM HEPES pH 7.8, 1 mM TCEP, 25 °C
[4] = tested on: N[C@@H](COP(=O)(O)O)C(=O)O; experiment: purified protein; details: co-substrate L-Glu 0.1-150 mM, 50 mM HEPES pH 7.8, 1 mM TCEP, 25 °C

T1 sequence (A6QDA0 whole entry): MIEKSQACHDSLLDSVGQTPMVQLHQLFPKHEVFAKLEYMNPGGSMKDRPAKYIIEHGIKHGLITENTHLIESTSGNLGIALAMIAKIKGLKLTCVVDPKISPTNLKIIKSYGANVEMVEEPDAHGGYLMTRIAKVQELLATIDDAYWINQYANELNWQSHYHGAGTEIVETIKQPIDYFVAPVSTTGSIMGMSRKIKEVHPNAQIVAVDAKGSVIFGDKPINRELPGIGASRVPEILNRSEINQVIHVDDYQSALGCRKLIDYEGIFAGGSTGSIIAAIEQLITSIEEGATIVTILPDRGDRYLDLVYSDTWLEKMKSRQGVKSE

Compound	IC50 (SbnA [1])	Ki (SbnA [2])	other results
O=C(O)CC(C(=O)O)c1ccccc1 (racemic) [compound 2, 2-phenylsuccinic acid]	366 ± 37 µM	124 ± 13 µM	–
N[C@@H](CCC(=O)O)C(=O)O [L-glutamate]	–	–	Ki (SbnA [3]): 25750 ± 7930 µM
O=C(O)CC(O)(CC(=O)O)C(=O)O [citrate]	800 ± 100 µM	900 ± 200 µM	–
O=C(O)/C=C(\C(=O)O)c1ccccc1 [compound 3, Z-2-phenylbut-2-enedioic acid]	37 ± 3 µM	16 ± 2 µM	–
O=C(O)CCC(=O)C(=O)O [α-ketoglutarate]	2600 ± 200 µM	–	–
SbnA (Staphylococcus aureus subsp. aureus str. Newman)	–	–	Km [4]: 27 ± 6 µM; kcat/Km [4]: 170000 M⁻¹ s⁻¹
